This is an account of results in patent US10301320B2, “Compositions and methods of modulating 15-PGDH activity” (CASE WESTERN RESERVE UNIVERSITY, priority 2012, dated 2019).

Read-outs that look alike come from different tables or passages of the source.

The term inhibition denotes the change of the read-out against control, counted positive when it falls.

Assay [1] concerns V9m reporter cell line expressing a 15-PGDH luciferase fusion construct. The assay is described as follows: 15-PGDH-luciferase fusion gene reporter induction, V9m cell line. It counts as cell-based. The note with it: for percent reporter induction over basal at […]: read-out: V9M-SC3 Reporter activity % ([…]), Table 18, read-out: V9M-SC3 Reporter activity % (7.5 μM). From the text: (§1) These cell lines are Vaco-9m (V9m), LS174T, Vaco503 (V503). […] Value of 1.0 on the Y-axis is the basal level of reporter activity in cells treated with drug free DMSO vehicle.
(§2) This Example provides data on a group of structural analogues of SW033291. Data provided includes level of induction of a 15-PGDH-luciferase fusion gene reporter, recorded as % increased luciferase activity over basal level, in three colon cancer cell lines, V9m, V503, and LS174T, engineered to contain the reporter, and treated with either 2.5 uM or 7.5 uM compound (i.e., Values are recorded on a scale where 100 indicates of doubling of luciferase activity over baseline level).
(§3) FIGS. 27(A-C) show graphs that show the level of compound's activity in inducing the 15-PGDH-luciferase fusion reporter in three different test cell line backgrounds, V9m, LS174T, and V503. Each compound was tested at two concentrations, 2.5 uM, and 7.5 uM. Y-axis is luciferase activity.
(§4) Data provided include level of induction of a 15-PGDH-luciferase fusion gene reporter, recorded as % induction of luciferase activity over basal level, in three colon cancer cell lines, V9m, V503, and LS174T, engineered to contain the reporter, and treated with either 2.5 uM or 7.5 uM compound. […] Additionally, for selected compounds is recorded the decrease in PGE2 levels in the media of compound treated A549 cells that have been stimulated with IL-1 beta. Additionally recorded for selected compounds is the effect on A549 cell viability as measured by a CellTiter-Glo assay, and the effect of compounds on A549 cell colony formation.

In assay [2] the target is recombinant 15-PGDH protein (Homo sapiens (Human), UniProt P15428). Description: Inhibition of enzymatic activity of recombinant 15-PGDH in vitro.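 Further: activity of recombinant human 15-PGDH assayed in vitro using PGE2 as the substrate.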 It counts as biochemical.
Sequence of recombinant 15-PGDH protein (P15428 whole entry, the tested form may be a part): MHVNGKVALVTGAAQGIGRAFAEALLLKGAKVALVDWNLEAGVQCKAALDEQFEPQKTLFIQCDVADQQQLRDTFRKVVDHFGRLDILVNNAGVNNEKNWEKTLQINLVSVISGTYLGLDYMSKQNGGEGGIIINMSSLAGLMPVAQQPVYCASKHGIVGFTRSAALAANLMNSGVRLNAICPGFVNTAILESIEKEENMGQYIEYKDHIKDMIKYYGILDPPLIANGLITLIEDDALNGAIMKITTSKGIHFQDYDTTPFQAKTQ
Assay [3] deals with Vaco503 reporter cell line expressing a 15-PGDH luciferase fusion construct. The assay is described as follows: 15-PGDH-luciferase fusion gene reporter induction, Vaco503 (V503) cell line. It counts as cell-based.
Source text: as §1, §2, §3, §4

For assay [4], the system named is LS174T reporter cell line expressing a 15-PGDH luciferase fusion construct. The assay is described as follows: 15-PGDH-luciferase fusion gene reporter induction, LS174T cell line. The class given is cell-based. Conditions: Homo sapiens.
Source text: as §1, §2, §3, §4

The mark [5] stands for this setting: read-out: Enzyme inhibition % ([…]), Table 18, […] compound, read-out: Enzyme inhibition % (2.5 μM).
The mark [6] stands for this setting: read-out: Enzyme inhibition % ([…]), Table 18, […] compound, read-out: Enzyme inhibition % (7.5 μM).
The mark [7] stands for this setting: read-out: V9M reporter activity ([…]), Table 17, […], % induction over basal level, read-out: V9M reporter activity (2.5 μM).
Where [8] appears, read: read-out: V9M reporter activity ([…]), Table 17, […], read-out: V9M reporter activity (7.5 μM).
[9] abbreviates: read-out: V503 reporter activity ([…]), Table 17, […], read-out: V503 reporter activity (2.5 μM).
Setting [10] is: read-out: V503 reporter activity ([…]), Table 17, […], read-out: V503 reporter activity (7.5 μM).
Setting [11] is: read-out: 1S174T reporter activity ([…]), Table 17, […], read-out: 1S174T reporter activity (7.5 μM).
[12] abbreviates: read-out: LS174T reporter activity ([…]), Table 17, […], read-out: LS174T reporter activity (2.5 μM).
[13] abbreviates: read-out: V9M reporter activity ([…]), […], % increased luciferase activity over basal level, 100 = doubling, read-out: V9M reporter activity (2.5 uM).
Where [14] appears, read: read-out: Enzyme inhibition % ([…]), recombinant 15-PGDH, […] compound, read-out: Enzyme inhibition % (2.5 μM).
[15] abbreviates: read-out: Enzyme inhibition % ([…]), recombinant 15-PGDH, […] compound, read-out: Enzyme inhibition % (7.5 μM).

As for `COc1ccc(OC)c(N(CC(=O)Nc2ccc(Cl)c(Cl)c2)S(=O)(=O)c2ccccc2)c1` [339589-55-8], the percent reporter induction over basal at […] in assay [1] ([…]) stood at 8%. Besides, the figures for the inhibition at […] in assay [2] (setting [5]) and in assay [2] (setting [6]) were 19.1% and 22%, respectively.
Consider `CCc1ccccc1N(CC(=O)Nc1cccnc1)S(=O)(=O)c1ccccc1` [528580-69-0], for which the percent reporter induction over basal at […] in assay [1] ([…]) was -0.5%. Further, the inhibition at […] in assay [2] (setting [5]) is -8.22%; in assay [2] (setting [6]), 10.2%.
`O=C(CN(c1ccc2c(c1)OCCO2)S(=O)(=O)c1ccccc1)Nc1cccnc1` [701217-00-7]: in assay [1] ([…]), the percent reporter induction over basal at […] worked out at 79.5%. Also, the inhibition at […] in assay [2] (setting [5]) worked out at 10.1%; in assay [2] (setting [6]), 13.1%.
In the case of `COc1ccc(N(CC(=O)Nc2cccnc2)S(=O)(=O)c2ccccc2)c(OC)c1` [310875-38-8], the percent reporter induction over basal at […] in assay [1] ([…]) is -16.4%. Further, the results for the inhibition at […] in assay [2] (setting [5]) and in assay [2] (setting [6]) were 23.5% and 33.4%, respectively.
Take `COc1ccc(S(=O)(=O)N(CC(=O)Nc2cccc(N(C)S(C)(=O)=O)c2)c2cc(Cl)ccc2OC)cc1OC` [compound 924787]: the activation at […] in assay [1] (setting [7]) is -1.45%; in assay [1] (setting [8]) it was 18.1%; in assay [3] (setting [9]), 21.9%; in assay [3] (setting [10]) it was 48%; in assay [4] (setting [11]), 13.1%; in assay [4] (setting [12]), 4.32%.
As to `COc1ccc(S(=O)(=O)N(CC(=O)Nc2cccc(Br)c2)c2cc(Cl)ccc2OC)cc1OC` [compound 771130], the activation at […] is 8.67% in assay [1] (setting [7]); 5.84% in assay [1] (setting [8]); -10.2% in assay [3] (setting [9]); -3.48% in assay [3] (setting [10]); -0.48% in assay [4] (setting [11]); 8.66% in assay [4] (setting [12]).
For `CCOc1ccc(N(CC(=O)Nc2cccnc2)S(=O)(=O)c2ccccc2)cc1` [428473-22-7], the percent reporter induction over basal at […] in assay [1] ([…]) amounted to 2.05%. Besides, the figures for the inhibition at […] in assay [2] (setting [5]) and in assay [2] (setting [6]) were 3.76% and 8.67%, respectively.
On to `CCCC[S+]([O-])c1ncccc1[N+](=O)[O-]` (centres unmarked) [SW208069, 2-(butylsulfinyl)-3-nitropyridine], for which the activation at […] was -14.5% in assay [1] (setting [13]); 0.23% in assay [1] (read-out: V9M reporter activity ([…]), […], % increased luciferase activity over basal level, read-out: V9M reporter activity (7.5 uM)); 19.5% in assay [3] (read-out: V503 reporter activity ([…]), […], % increased luciferase activity over basal level, read-out: V503 reporter activity (2.5 uM)); 15.1% in assay [3] (read-out: V503 reporter activity ([…]), […], % increased luciferase activity over basal level, read-out: V503 reporter activity (7.5 uM)); 19.5% in assay [4] (read-out: LS174T reporter activity ([…]), […], % increased luciferase activity over basal level, read-out: LS174T reporter activity (2.5 uM)); 15.1% in assay [4] (read-out: LS174T reporter activity ([…]), […], % increased luciferase activity over basal level, read-out: LS174T reporter activity (7.5 uM)).
Consider `O=C(CN(c1cc(Cl)ccc1Cl)S(=O)(=O)c1ccccc1)Nc1cccnc1` [833428-03-8], for which the percent reporter induction over basal at […] in assay [1] ([…]) came to 17.4%. The figures for the inhibition at […] in assay [2] (setting [5]) and in assay [2] (setting [6]) were 16.4% and 49.2%, respectively.
As for `COC(=O)c1ccccc1NC(=O)CN(c1cc(OC)ccc1OC)S(=O)(=O)c1ccccc1` [333449-58-4], in assay [1] ([…]), the percent reporter induction over basal at […] was found to be 71.2%. Also, the inhibition at […] was 9.72% in assay [2] (setting [5]) and -3.12% in assay [2] (setting [6]).
For `COc1ccc(OC)c(N(CC(=O)Nc2cccnc2)S(=O)(=O)c2ccc(OC)c(OC)c2)c1` [680599-58-0] the same measures were -22.5%, 31.8% and 50.7%.
For `O=C(CN(c1ccccc1)S(=O)(=O)c1ccccc1)Nc1cccnc1` [331727-07-2] the same measures were 120%, 9.65% and 17.5%.
Regarding `CCc1ccc(N(CC(=O)Nc2cccnc2)S(=O)(=O)c2ccccc2)cc1` [461439-84-9], in assay [1] ([…]), the percent reporter induction over basal at […] is -41.8%. The figures for the inhibition at […] in assay [2] (setting [5]) and in assay [2] (setting [6]) were 9.28% and 3.35%, respectively.
With `Nc1c([S+]([O-])Cc2ccccc2)sc2nc(-c3cccs3)cc(-c3ccccc3)c12` (centres unmarked) [SW033292], the activation at […] in assay [1] (setting [13]) was found to be 1.51%.
On to `COc1ccc(Cl)cc1N(CC(=O)Nc1cccnc1)S(=O)(=O)c1ccccc1` [328012-52-8], for which the percent reporter induction over basal at […] in assay [1] ([…]) came to 0.51%. Besides, the inhibition at […] in assay [2] (setting [5]) turned out to be 67.4%; in assay [2] (setting [6]), 82.1%.
`COc1ccc(OC)c(N(CC(=O)NC2CCCCC2)S(=O)(=O)c2ccccc2)c1` [333446-93-8]: the percent reporter induction over basal at […] in assay [1] ([…]) was determined as 44%. Besides, the inhibition at […] is -5.31% in assay [2] (setting [5]) and 5.85% in assay [2] (setting [6]).
For the molecule `COc1ccc(OC)c(N(CC(=O)Nc2ccc(C)cc2)S(=O)(=O)c2ccccc2)c1` [311333-86-5], the percent reporter induction over basal at […] in assay [1] ([…]) was 117%. Also, in assay [2] (setting [5]), the inhibition at […] worked out at 34%.
With `COc1ccc(OC)c(N(CC(=O)Nc2cccnc2)S(C)(=O)=O)c1` [527699-66-7], the percent reporter induction over basal at […] in assay [1] ([…]) is -37.2%. For the same molecule, the inhibition at […] is -20.6% in assay [2] (setting [5]) and 27.9% in assay [2] (setting [6]).
For `COc1ccc(OC)c(N(CC(=O)Nc2ccc(F)cc2)S(=O)(=O)c2ccccc2)c1` [426231-26-7] the same measures were 2.5%, 39.8% and 56.4%.
Consider `COc1ccccc1N(CC(=O)Nc1cccnc1)S(=O)(=O)c1ccccc1` [367929-80-4], for which the percent reporter induction over basal at […] in assay [1] ([…]) is -19%. Besides, the inhibition at […] was 8.95% in assay [2] (setting [5]) and 34.8% in assay [2] (setting [6]).
Regarding `COc1ccc(OC)c(N(CC(=O)Nc2cccnc2)S(=O)(=O)c2ccc(C)cc2)c1` [505072-23-1], in assay [1] ([…]), the percent reporter induction over basal at […] was 71.5%. Besides, the inhibition at […] in assay [2] (setting [5]) amounted to 67.4%; in assay [2] (setting [6]) it was 84.6%.
For `COc1ccc(OC)c(N(CC(=O)Nc2ccccc2C(N)=O)S(=O)(=O)c2ccccc2)c1` [530107-57-4] the same measures were 116%, 21.7% and 9.25%.
With `COc1cccc(N(CC(=O)Nc2cccnc2)S(=O)(=O)c2ccccc2)c1` [335392-39-7], the percent reporter induction over basal at […] in assay [1] ([…]) was 7.18%. Also, the inhibition at […] in assay [2] (setting [5]) came to 11%; in assay [2] (setting [6]), 5.37%.
On to `COc1ccc(OC)c(N(CC(=O)Nc2ccc(Cl)cc2)S(=O)(=O)c2ccccc2)c1` [339589-53-6], for which the percent reporter induction over basal at […] in assay [1] ([…]) amounted to 4.25%. Besides, the inhibition at […] in assay [2] (setting [5]) stood at 35.5%; in assay [2] (setting [6]), 37.4%.
For `COc1ccc(N(CC(=O)Nc2cccnc2)S(=O)(=O)c2ccccc2)cc1` [418783-65-0], the percent reporter induction over basal at […] in assay [1] ([…]) stood at 67.2%. In addition, the inhibition at […] turned out to be 10.8% in assay [2] (setting [5]) and 12.1% in assay [2] (setting [6]).
Take `COc1ccc(OC)c(N(CC(=O)Nc2cccc(Cl)c2)S(=O)(=O)c2ccccc2)c1` [311315-25-0]: the activation at […] amounted to 62.6% in assay [4] (read-out: Ls174T-SC1 reporter activity, % ([…]), Table 18, […], read-out: Ls174T-SC1 reporter activity, % (2.5μM)) and 75.8% in assay [4] (read-out: Ls174T-SC1 reporter activity, % ([…]), Table 18, […], read-out: Ls174T-SC1 reporter activity, % (7.5 μM)). The inhibition at […] in assay [2] (setting [5]) is 18.7%; in assay [2] (setting [6]), 34.7%.
On to `COc1ccc(OC)c(N(CC(=O)Nc2cncnc2)S(=O)(=O)c2ccccc2)c1` [SW203683], for which the inhibition at […] in assay [2] (setting [14]) was found to be 23.4%; in assay [2] (setting [15]), 57.1%.
Turning to `COc1ccc(OC)c(N(CC(=O)Nc2cccnc2)S(=O)(=O)c2ccccc2OC(F)(F)F)c1` [SW202954], the inhibition at […] is 6.02% in assay [2] (setting [14]) and 9.88% in assay [2] (setting [15]).
